For assay [1], the target named is T1, UT-B (Mus musculus, UniProt Q8VHL0).
T1 construct: endogenous in cells; host or cells: erythrocytes of C57 mice
T1 sequence (Q8VHL0 1-384): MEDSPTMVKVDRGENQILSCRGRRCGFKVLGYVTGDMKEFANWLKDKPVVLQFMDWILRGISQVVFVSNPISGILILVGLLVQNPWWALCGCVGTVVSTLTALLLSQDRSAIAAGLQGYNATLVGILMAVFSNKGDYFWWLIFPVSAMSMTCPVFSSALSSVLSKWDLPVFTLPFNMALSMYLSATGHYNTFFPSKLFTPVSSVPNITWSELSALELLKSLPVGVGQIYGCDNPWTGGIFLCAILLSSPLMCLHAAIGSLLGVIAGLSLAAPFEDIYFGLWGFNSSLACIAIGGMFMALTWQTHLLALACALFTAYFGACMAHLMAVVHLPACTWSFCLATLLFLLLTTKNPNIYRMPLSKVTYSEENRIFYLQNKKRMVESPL
The experiment in a line: erythrocyte lysis model, mouse erythrocytes. The settings on record: concentration when the erythrocyte lysis rate of mice was 50%. The assay is classed as cell-based. Here is the method: (§1) Erythrocyte lysis rate was calculated:
(§2) The formula for calculating the lysis rate percentage of erythrocytes, wherein Atest was the absorbance value of the test well, Aneg was the absorbance value of the negative control well, and Apos was the absorbance value of the positive control well. Erythrocyte lysis rate was calculated by measuring absorption at a wavelength of 710 nm.
(§3) The erythrocytes of three species of human, rats (SD rats) and mice (C57 mice) were taken, and urea transporter inhibitors were preliminarily screened from the above screening compound library by using the erythrocyte urea transporter inhibitor screening model.

Assay [2] addresses T2, UT-B (Rattus norvegicus, UniProt P97689).
T2 construct: endogenous in cells; host or cells: erythrocytes of SD rats
T2 sequence (P97689 1-384): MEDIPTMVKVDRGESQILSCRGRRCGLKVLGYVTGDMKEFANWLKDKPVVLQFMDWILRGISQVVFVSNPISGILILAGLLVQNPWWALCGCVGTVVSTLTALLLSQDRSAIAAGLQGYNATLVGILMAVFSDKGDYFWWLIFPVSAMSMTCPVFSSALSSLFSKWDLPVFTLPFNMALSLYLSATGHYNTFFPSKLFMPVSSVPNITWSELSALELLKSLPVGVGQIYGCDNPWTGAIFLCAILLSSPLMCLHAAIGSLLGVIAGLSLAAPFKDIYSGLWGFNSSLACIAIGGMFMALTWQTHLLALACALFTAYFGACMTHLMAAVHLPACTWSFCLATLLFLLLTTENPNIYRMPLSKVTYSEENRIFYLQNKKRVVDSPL
The experiment in a line: erythrocyte lysis model, rat erythrocytes. The assay is classed as cell-based, rats. Here is the method:
as §1, §2, §3

For a further assay, the target named is T3, human UT-B (Homo sapiens, UniProt Q13336).
T3 construct: endogenous in cells; host or cells: human erythrocytes
T3 sequence (Q13336 1-389): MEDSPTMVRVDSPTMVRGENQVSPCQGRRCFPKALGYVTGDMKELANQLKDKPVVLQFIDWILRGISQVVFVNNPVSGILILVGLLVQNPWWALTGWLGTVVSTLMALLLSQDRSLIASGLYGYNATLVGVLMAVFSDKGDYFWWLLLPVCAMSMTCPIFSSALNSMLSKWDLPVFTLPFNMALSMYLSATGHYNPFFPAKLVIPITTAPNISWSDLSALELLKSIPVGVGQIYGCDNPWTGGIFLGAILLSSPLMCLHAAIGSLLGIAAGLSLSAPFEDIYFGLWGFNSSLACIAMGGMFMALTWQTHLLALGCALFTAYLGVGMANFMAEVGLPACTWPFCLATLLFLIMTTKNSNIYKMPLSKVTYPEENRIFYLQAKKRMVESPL
The experiment in a line: erythrocyte lysis model, human erythrocytes. The assay is classed as cell-based. On the procedure: as §1, §2, §3

The mark [3] stands for this setting: concentration when the erythrocyte lysis rate of rats was 50%, read-out: IC50 rats.
Setting [4] is: class of the IC50 to human UT-B, read-out: Activity level.
Setting [5] is: concentration when the erythrocyte lysis rate of human was 50%, read-out: IC50 human.

Molecules are shown by their SMILES. Read-outs that look alike come from different tables or passages of the source.

Consider `CC(=O)Nc1ccc(NC(=O)c2ccc([N+](=O)[O-])s2)cc1` [Example 9, N-(4-acetamidophenyl)-5-nitrothiophene-2-carboxamide], for which the IC50 against UT-B [1] was 18.7 µM; at UT-B [2] (setting [3]) it was 20.1 µM; on human UT-B (setting [4]), under 10 µM; at human UT-B (setting [5]), 2.53 µM.
On the same counts, the results for `O=C(Nc1ccc2ncccc2c1)c1ccc([N+](=O)[O-])o1` [Example 16, N-(quinolin-6-yl)-5-nitrofuran-2-carboxamide] are 5.08 µM, 5.49 µM, under 10 µM and 1.64 µM.
On the same counts, the results for `O=C(Nc1ccon1)c1ccc([N+](=O)[O-])o1` [Example 19, N-(isoxazol-3-yl)-5-nitrofuran-2-carboxamide] are 10.2 µM, 30 µM, under 10 µM and 3.63 µM.
On the same counts, the results for `O=C(Nc1cc[nH]n1)c1ccc([N+](=O)[O-])o1` [Example 20, N-(1H-pyrazol-5-yl)-5-nitrofuran-2-carboxamide] are 1.09 µM, 1.36 µM, under 10 µM and 0.22 µM.
Take `Cn1ccc(NC(=O)c2ccc([N+](=O)[O-])o2)n1` [Example 21, N-(1-methyl-1H-pyrazol-3-yl)-5-nitrofuran-2-carboxamide]: the IC50 at UT-B [1] was 8.51 µM; on UT-B [2] (setting [3]), 1.1 µM; at human UT-B (setting [4]), under 10 µM; on human UT-B (setting [5]) it was 2.21 µM.
Turning to `Cn1cc(NC(=O)c2ccc([N+](=O)[O-])o2)cn1` [Example 22, N-(1-methyl-1H-pyrazol-4-yl)-5-nitrofuran-2-carboxamide], the IC50 at UT-B [1] is 33.2 µM; on UT-B [2] (setting [3]), 9.64 µM; on human UT-B (setting [4]) it was 10 to 20 µM; on human UT-B (setting [5]), 15.8 µM.
In the case of `Cc1cccc(NC(=O)c2ccc([N+](=O)[O-])o2)c1` [Example 28, N-(3-methylphenyl)-5-nitrofuran-2-carboxamide], the IC50 is 30.5 µM against UT-B [1], 3.91 µM at UT-B [2] (setting [3]), under 10 µM on human UT-B (setting [4]) and 3.66 µM at human UT-B (setting [5]).
The corresponding values for `COc1ccccc1NC(=O)c1ccc([N+](=O)[O-])o1` [Example 29, N-(2-methoxyphenyl)-5-nitrofuran-2-carboxamide] are 17.1 µM, 4.11 µM, under 10 µM and 4.87 µM.
On to `COc1cccc(NC(=O)c2ccc([N+](=O)[O-])o2)c1` [Example 30, N-(3-methoxyphenyl)-5-nitrofuran-2-carboxamide], for which the IC50 is 9.65 µM at UT-B [1], 1.11 µM at UT-B [2] (setting [3]), under 10 µM at human UT-B (setting [4]) and 2.27 µM at human UT-B (setting [5]).
The corresponding values for `O=C(Nc1cccc(O)c1)c1ccc([N+](=O)[O-])o1` [Example 32, N-(3-hydroxyphenyl)-5-nitrofuran-2-carboxamide] are 2.39 µM, 0.67 µM, under 10 µM and 0.91 µM.
On the same counts, the results for `Nc1cccc(NC(=O)c2ccc([N+](=O)[O-])o2)c1` [Example 34, N-(3-aminophenyl)-5-nitrofuran-2-carboxamide] are 10.5 µM, 1.8 µM, under 10 µM and 3.58 µM.
As for `O=C(Nc1ccccc1F)c1ccc([N+](=O)[O-])o1` [Example 35, N-(2-fluorophenyl)-5-nitrofuran-2-carboxamide], the IC50 on UT-B [1] is 43.8 µM; on UT-B [2] (setting [3]), 3.8 µM; at human UT-B (setting [4]), under 10 µM; at human UT-B (setting [5]) it was 3.62 µM.
On the same counts, the results for `O=C(Nc1cccc(F)c1)c1ccc([N+](=O)[O-])o1` [Example 36, N-(3-fluorophenyl)-5-nitrofuran-2-carboxamide] are 9.28 µM, 1.85 µM, under 10 µM and 3.09 µM.
On the same counts, the results for `O=C(Nc1cccc(Cl)c1)c1ccc([N+](=O)[O-])o1` [Example 38, N-(3-chlorophenyl)-5-nitrofuran-2-carboxamide] are 5.81 µM, 1.05 µM, under 10 µM and 2.91 µM.
The corresponding values for `N#Cc1cccc(NC(=O)c2ccc([N+](=O)[O-])o2)c1` [Example 40, N-(3-cyanophenyl)-5-nitrofuran-2-carboxamide] are 7.85 µM, 2.77 µM, under 10 µM and 1 µM.
As for `CCOC(=O)c1cccc(NC(=O)c2ccc([N+](=O)[O-])o2)c1` [Example 42, Ethyl 3-(5-nitrofuran-2-carboxamido)benzoate], the IC50 against UT-B [1] was 2.3 µM; on UT-B [2] (setting [3]), 0.45 µM; at human UT-B (setting [4]), under 10 µM; at human UT-B (setting [5]) it was 0.47 µM.
For `NC(=O)c1cccc(NC(=O)c2ccc([N+](=O)[O-])o2)c1` [Example 44, N-(3-carbamoylphenyl)-5-nitrofuran-2-carboxamide], the IC50 on UT-B [1] was 0.5 µM; at UT-B [2] (setting [3]) it was 0.17 µM; at human UT-B (setting [4]) it was under 10 µM; on human UT-B (setting [5]), 0.42 µM.
The corresponding values for `CC(=O)c1cccc(NC(=O)c2ccc([N+](=O)[O-])o2)c1` [Example 46, N-(3-acetylphenyl)-5-nitrofuran-2-carboxamide] are 2.46 µM, 0.49 µM, under 10 µM and 1.84 µM.
The corresponding values for `O=C(Nc1ccc(CCO)cc1)c1ccc([N+](=O)[O-])o1` [Example 50, N-(4-(2-hydroxyethyl)phenyl)-5-nitrofuran-2-carboxamide] are 10.2 µM, 8.37 µM, under 10 µM and 5.3 µM.
On the same counts, the results for `NCc1ccc(NC(=O)c2ccc([N+](=O)[O-])o2)cc1` [Example 51, N-(4-aminomethylphenyl)-5-nitrofuran-2-carboxamide] are 1.69 µM, 0.49 µM, under 10 µM and 0.94 µM.
For `O=C(Nc1ccc(NC(=O)c2ccc([N+](=O)[O-])o2)cc1)c1ccc([N+](=O)[O-])o1` [Example 52, N,N′-(1,4-phenylene)bis(5-nitrofuran-2-carboxamide)], the IC50 was 0.52 µM against UT-B [1]; 0.27 µM on UT-B [2]; under 10 µM at human UT-B (Activity level, class of the IC50 to human UT-B); 0.65 µM against human UT-B (IC50 human, concentration when the erythrocyte lysis rate of human was 50%).
Take `CNC(=O)c1cccc(NC(=O)c2ccc([N+](=O)[O-])o2)c1` [Example 53, N-(3-(methylcarbamoyl)phenyl)-5-nitrofuran-2-carboxamide]: the IC50 at UT-B [1] is 0.29 µM; at UT-B [2] (setting [3]) it was 0.015 µM; on human UT-B (setting [4]), under 10 µM; at human UT-B (setting [5]), 0.023 µM.
`CN(C)C(=O)c1cccc(NC(=O)c2ccc([N+](=O)[O-])o2)c1` [Example 54, N-(3-(dimethylcarbamoyl)phenyl)-5-nitrofuran-2-carboxamide]: the IC50 at UT-B [1] was 0.31 µM; on UT-B [2] (setting [3]), 0.2 µM; at human UT-B (setting [4]) it was under 10 µM; at human UT-B (setting [5]) it was 0.74 µM.
On the same counts, the results for `CCNC(=O)c1cccc(NC(=O)c2ccc([N+](=O)[O-])o2)c1` [Example 55, N-(3-(ethylcarbamoyl)phenyl)-5-nitrofuran-2-carboxamide] are 5.41 µM, 1.21 µM, under 10 µM and 0.88 µM.
For `CCOC(=O)c1c[nH]nc1NC(=O)c1ccc([N+](=O)[O-])o1` [Example 76, ethyl 5-(5-nitrofuran-2-carboxamide)-1H-pyrazole-4-carboxylate], the IC50 at UT-B [1] is 15 µM; on human UT-B (setting [4]), over 80 µM; on human UT-B (setting [5]), over 80 µM.

Values taken from US12428389B2, “Diarylamide compound and application thereof” (Sunshine Lake Pharma Co., Ltd., priority 2019, dated 2025).
